Test results published in PubChem BioAssay AID1794807 (Yongcheng Song lab at Baylor College of Medicine, 2022).
Calls of active or inactive are those of the source.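 The calls were made as follows: active = half-maximal effective concentration EC50 under 50 µM in the live-cell XTT test; inactive = the rest.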

test system: MV4;11 AML cells, XTT viability; assay: antiproliferative activity against MV4,11 AML cells – cell-based, XTT absorbance, dose response (AID 1794807)

Structure (SMILES) | EC50
NC(=O)c1ccc(-c2ccc3cc(C(=O)NCC4CCNCC4)sc3c2)cc1 | > 50 µM (inactive)
O=C(NCC1CCNCC1)c1c[nH]c2cc(-c3ccc(N4CCCC4)cc3)ccc12 | 26 µM
O=C(NCC1CCNCC1)c1cc2ccc(-c3ccc(N4CCCC4)cc3)cc2s1 | 8.7 µM
O=C(NCC1CCNCC1)c1cc2cc(-c3cn[nH]c3)ccc2[nH]1 | > 50 µM (inactive)
O=C(NCC1CCNCC1)c1cc2cc(-c3ccc(N4CCCCC4)cc3)ccc2[nH]1 | 22 µM
O=C(NCC1CCNCC1)c1coc2cc(-c3ccc(N4CCCCC4)cc3)ccc12 | 21 µM
O=C(NCC1CCNCC1)c1cc2ccc(-c3ccc(N4CCCCC4)cc3)cc2s1 | 9.6 µM
NCc1ccc(-c2ccc3cc(C(=O)NCC4CCNCC4)oc3c2)cc1 | 50 µM (inactive)
O=C(NCC1CCNCC1)c1c[nH]c2cc(-c3ccc(N4CCCCC4)cc3)ccc12 | 33 µM
O=C(NCC1CCNCC1)c1cc2cc(-c3ccc(N4CCCCC4)cc3)ccc2s1 | 8.2 µM
